From patent US12336986B2, “Treatment and prevention of ocular neurodegenerative disorder” (The Jackson Laboratory, priority 2015, dated 2025)
“Also recorded” adds a separate entry of the source.

Legend:
[1] = system: PARP; assay: PARP activation (pan-PARP immunostaining) in D2 retinas; assay type: in vivo, mouse; settings: NAM 550 mg/kg/day
Description: (§1) For immunofluorescence staining, mice were euthanized by cervical dislocation, their eyes enucleated and placed in 4% PFA ON. Retinas were dissected and flat-mounted onto slides, permeabilized with 0.1% Triton-X for 15 mins, blocked with 2% BSA in PBS and stained ON at RT in primary antibody (see below for list of antibodies).
(§2) After primary antibody incubation, retinas were washed 5 times in PBS, stained for 4 hrs at RT with secondary antibody. Slides were then washed a further 5 times with PBS, stained with DAPI for 15 mins, mounted with fluoromount, coverslipped and sealed with nail-polish.
(§3) For retinal sections, eyes were cryoprotected in 30% sucrose ON, frozen in OCT and cryosectioned at 18 μm. Slides were warmed to room temperature and the procedure above was followed. Retinas were imaged on a Zeiss AxioObserver for low resolution counts. Retinal sections were imaged on a Leica SP8 far higher resolution images.

[2] = system: ganglion cell layer cells (GCL cells); assay: Whole retina explant culture (axotomy culture model), DAPI nuclei; assay type: cell-based, mouse
Description: Mice were euthanized, eyes enucleated and placed immediately into ice-cold HBSS. Retinas were dissected from the eyes in HBSS on ice, flat-mounted with the ganglion cell layer up on a cell culture insert (Millipore), and submerged in tissue culture media containing Neurobasal-A, 1% penicillin-streptomycin (10000 U/mL), 1% glutamine (100×), 1% N-2 (100×) and 1% B-27 (50×) (all ThermoFisher Scientific).
For drug treated retinas tissue culture media was made as above and supplemented with one of the following compounds (all Sigma unless otherwise): β-NAD, NAM (PanReac AppliChem), β-NMN. Retinas were incubated in 6-well plates at 37° C. and 4% CO2 for 5 days before being fixed in 4% PFA and stained with DAPI. (For untreated “Day 0” controls, retinas were dissected and placed straight into 4% PFA.) Retinas were imaged on a Zeiss AxioObserver.

[3] = system: dendritic mitochondria of D2 RGCs; assay: Electron microscopy of RGC dendritic mitochondria (cristae); assay type: in vivo, mouse; settings: D2 mice, NAM 550 mg/kg/day
Description: Mice were euthanized, eyes enucleated, and then fixed ON in Smith-Ruda (0.8% PFA and 1.2% gluteraldehyde in 0.1 M phosphate buffer). The cornea and lens were dissected off and the remaining posterior eye-cup (containing the retina and ONH) were post-fixed in 2% aqueous osmium tetroxide and dehydrated in ethyl alcohol. Samples were then infiltrated and flat-mounted in Embed 812/Araldite resin (Electron Microscopy Sciences) to allow en face sections. Blocks were polymerized at 60° C. for 48 hrs and 90 nm microtome sections were cut (Leica UC6, Leica) onto 300 mesh copper grids. Grids were stained with 1% aqueous uranyl acetate/Reynold's lead citrate and were viewed on a JEOL JEM 1230 TEM. Images were collected on an AMT 2K camera.

[4] = system: D2 retinas; assay: Retinal NFL and IPL thinning (Nissl staining) in D2 mice; assay type: in vivo, mouse; settings: NAM or pyruvate in drinking water
Description: For Nissl staining, frozen sections were warmed to room temperature, placed in 1:1 alcohol:chloroform ON, and rehydrated through serial alcohol gradient. Slides were washed once in distilled water and stained for 15 mins in 0.1% cresyl violet in distilled water before being differentiated in 95% alcohol, dehydrated in 100% alcohol and cleared in xylene. Slides were prepared as above. Nissl stained retinal sections were imaged using a Nikon Eclipse E200.

[5] = system: retinal ganglion cells (RGCs); assay: RGC soma loss (RBPMS staining) in D2 glaucoma; assay type: in vivo, mouse; settings: D2 mice; NAM 550 mg/kg/day or pyruvate 500 mg/kg/day
Description: as §1, §2, §3

[6] = system: γH2AX; assay: DNA damage (γH2AX staining) in D2 retinas; assay type: in vivo, mouse; settings: D2 mice, early glaucoma, NAM 550 mg/kg/day
Description: as §1, §2, §3

[7] = system: mouse model for EAE, ALS, RRMS; settings: US 2006-0211744 A1, RRMS mouse models; cited from earlier work
[8] = system: C57BL/6J (B6) mice; assay: Soluble murine TNFα intravitreal injection model of RGC death; assay type: in vivo, mouse; settings: NAM 550 mg/kg/day, 12-week post-TNFα administration
Description: To induce delayed retinal ganglion cell degeneration, soluble murine TNFα (1 ng/μL) was intravitrally injected as previously described (Nakazawa et al., J Neurosci 26, 12633-12641, 2006). […] Mice we sacrificed at 12-week and RGC counts performed.

[9] = system: D2 retinas; assay: Lipid droplet formation in inner retina (Oil Red O staining); assay type: in vivo, mouse; settings: D2 mice, 12-month, NAM 550 mg/kg/day
Description: For Oil Red O staining, slides were warmed to room temperature, washed quickly in 60% isopropanol, incubated at RT in Oil Red O and Haematoxylin for 15 mins, washed in 60% isopropanol again, mounted and coverslipped. Oil Red O stained retinal sections were imaged using a Nikon Eclipse […].

[10] = system: DBA/2J (D2) mice; assay: Clinical phenotyping: intraocular pressure (IOP) and iris disease in D2 mice; assay type: in vivo, mouse
Description: IOP elevation in D2 mice is subsequent to a pigment dispersing iris disease. In all experiments, the progression of the iris disease and intraocular pressure in mutant or drug-treated mice was compared to control D2 mice as previously described (John et al., Invest Ophthalmol Vis Sci 39, 951-962, 1998). In each experiment, iris disease and intraocular pressure were assessed.
Iris disease was assessed at two-month intervals starting at 6 months of age until experiment completion.
Intraocular pressure was measured at 45-day intervals beginning at 8.5-9 month until experiment completion.

[11] = system: DBA/2J (D2) mice; assay: Optic nerve assessment (PPD staining) and determination of glaucomatous damage in D2 mice; assay type: in vivo, mouse; settings: for risk factor of developing glaucoma (nerves with severe glaucoma): D2 mice at 12 months, control 0.6
Description: This diet has no effects on the ocular health of the mice.
PPD stains the myelin sheath of all axons but darkly stains the axoplasm of only damaged axons.
Briefly, intracranial portions of optic nerves were fixed in 4% PFA at RT for 48 hrs, processed and embedded in plastic. A segment of optic nerve from within a region up to 1 mm from the posterior surface of the sclera was sectioned (1 μm thick sections) and stained with PPD. Typically 30-50 sections are taken from each nerve.
Multiple sections of each nerve were considered when determining damage level. Optic nerves were analyzed and determined to have one of 3 damage levels: • (1) No or early damage (NOE) less than 5% axons damaged and no gliosis. This level of damage is seen in age and sex matched non-glaucomatous mice and is not due to glaucoma.

[12] = system: DBA/2J (D2) mice; assay: Pattern electroretinography (PERG) in D2 mice; assay type: in vivo, mouse; settings: for visual function, PERG amplitude: D2 mice
Description: PERG was recorded subcutaneously from the snout as previously reported. Briefly: patterned stimuli (gratings of 0.05 cycles/degree, 100% contrast) generated on LED panels were presented at each eye separately with slight different frequencies around 1 Hz. Waveforms were retrieved using an asynchronous averaging method (Chou et al., Invest Ophthalmol Vis Sci 55, 2469-2475, 2014).
Mice were anaesthetized using ketamine/xylazine (Savinova et al., BMC Genet 2, 12, 2001) and body temperature maintained at 37° C. on a feedback-controlled heated stage monitored by rectal thermometer.

[13] = system: HIF-1α; assay: HIF-1α induction (immunostaining, RNA-seq) in D2 retinas; assay type: in vivo, mouse; settings: D2 mice, early glaucoma, NAM 550 mg/kg/day
Description: as §1, §2, §3

[14] = axotomized retinas in culture, 5 days

NC(=O)c1cccnc1 [NAM, nicotinamide]
PARP activation / expression [1]: decreased PARP activation; also recorded: prevents PARP activation
nuclear diameter shrinkage (DAPI-labeled nuclei) ([2]; axotomized D2 retinas in culture, 5 days post-axotomy, NAM 100 mM and 500 mM): most robust protection against nuclear shrinkage; also recorded: protects against cell shrinkage; also recorded: indistinguishable from uninjured, baseline controls
ganglion cell layer cell death / cell density [2, 14]: attractive dose-response effect
protective effect in retina tissue culture [2, 14]: robustly protected
mitochondrial dysfunction / abnormal cristae in dendritic mitochondria (EM) [3]: sufficient to inhibit the formation of dysfunctional mitochondria; also recorded: prevents early mitochondrial dysfunction
retinal NFL and IPL thinning (Nissl) [4]: prevented; also recorded: protects
RGC soma loss (RBPMS) [5]: prevented; also recorded: protects from RGC soma loss; also recorded: prevent RGC soma loss
DNA damage (γH2AX staining) [6]: limited levels of DNA damage; also recorded: prevents DNA damage
neural degeneration [7]: reduces neural degeneration
loss of PERG amplitude in TNFα injected eyes [8]: protected against; also recorded: prevents
soma loss / cell loss in TNFα injected eyes [8]: protected against; also recorded: prevents
lipid droplet formation in the inner retina [9]: prevented; also recorded: prevents lipid droplet formation
IOP ([10]; NAM 550 mg/kg/d): did not alter IOP; also recorded: IOP was not altered
degree of IOP elevation ([10]; NAM 2000 mg/kg/d): lessens the degree of IOP elevation
risk factor of developing glaucoma (nerves with severe glaucoma) ([11]; high dose NAM 2,000 mg/kg/day): 0.06
risk factor of developing glaucoma (nerves with severe glaucoma) ([11]; low dose NAM 550 mg/kg/day): 0.36
protection against glaucoma compared to Wld^S alone ([11]; D2 mice bearing the Wld^S mutation, NAM 550 mg/kg/day): better protects against glaucoma than Wld^S alone; also recorded: significantly better than Wld^S alone
protection from glaucomatous damage (no glaucoma) ([11]; D2 mice carrying the Wld^S mutation, NAM 550 mg/kg/day from 6 months): ~95%
treated eyes having no glaucomatous optic nerve damage ([11]; D2 mice, NAM 2000 mg/kg/d (NAM^Hi), 12 months of age): 93%
protective in glaucoma ([11]; D2 mice, NAM alone (550 mg/kg/day)): about 70%
decrease in risk factor of developing glaucoma ([11]; D2 mice, high dose NAM 2,000 mg/kg/day): 10 fold
drop in risk factor ([11]; D2 mice, low dose NAM 550 mg/kg/day): ~2 fold
PERG amplitude ([12]; D2 Wld^S mice, NAM 550 mg/kg/day): additional recovery of PERG amplitude
visual function, PERG amplitude ([12]; NAM^Hi 2,000 mg/kg/day): protect
visual function, PERG amplitude ([12]; NAM^Lo 550 mg/kg/day or pyruvate 500 mg/kg/day): restored; also recorded: protect PERG even in aged mice
HIF-1α upregulation / transcriptional induction [13]: limited; also recorded: lessens upregulation
